# Data taken from patent US20140227201A1, “Antimicrobial Gel Formulations” (NovaBay Pharmaceuticals, Inc., priority 2013, published 2014).
# Experiment: Amount of compound an AA-1 polymer formulation can hold
# Assay type: physicochemical
# Details: by weight
# Text: The formulations may be made by mixing the N-halogenated or N,N-dihalogenated amine compound with the polymer using water. Water/oil emulsions, hydrating agents, wetting agents, surfactants, and the like may also be used. Concentrations of N-halogenated or N,N-dihalogenated amine compound may range from about 0.01% to about 5.0% (by weight). Concentrations of polymer may be from about 0.01% to about 10% (by weight) in water. For example, in certain implementations, the concentration of N-halogenated or N,N-dihalogenated compounds may range from about 0.1% to about 2.0% (by weight). Higher concentrations of polymer may be required to formulate higher concentrations of the N-halogenated or N,N-dihalogenated amine compound. For example, a 1% AA-1 formulation can hold up to about 2% N,N-dichloro-2,2-dimethyltaurine, whereas a 2% AA-1 formulation can hold up to about 3.5% of the same compound. These ratios may differ as different polymers and N-halogenated or N,N-dihalogenated amine compound are combined in a given formulation.
compound,measurement,setting,value
"CC(C)(CS(=O)(=O)O)N(Cl)Cl [NVC-422, N,N-dichloro-2,2-dimethyltaurine]",amount of compound the formulation can hold,1% AA-1 formulation,about 2%
same,amount of compound the formulation can hold,2% AA-1 formulation,about 3.5%
